Data from ChEMBL document CHEMBL5291721, “A preclinical secondary pharmacology resource illuminates target-adverse drug reaction associations of marketed drugs” (Nat Commun, 2023).

Legend:
[1] = biological target: 5-hydroxytryptamine receptor 6 (Homo sapiens, UniProt P50406)
[2] = biological target: 5-hydroxytryptamine receptor 7 (Homo sapiens, UniProt P34969)
D(1B) dopamine receptor = D(1B) dopamine receptor (Homo sapiens, UniProt P21918)
Substance-K receptor = biological target: T1, Substance-K receptor (Homo sapiens, UniProt P21452)
T1 sequence (P21452 whole entry): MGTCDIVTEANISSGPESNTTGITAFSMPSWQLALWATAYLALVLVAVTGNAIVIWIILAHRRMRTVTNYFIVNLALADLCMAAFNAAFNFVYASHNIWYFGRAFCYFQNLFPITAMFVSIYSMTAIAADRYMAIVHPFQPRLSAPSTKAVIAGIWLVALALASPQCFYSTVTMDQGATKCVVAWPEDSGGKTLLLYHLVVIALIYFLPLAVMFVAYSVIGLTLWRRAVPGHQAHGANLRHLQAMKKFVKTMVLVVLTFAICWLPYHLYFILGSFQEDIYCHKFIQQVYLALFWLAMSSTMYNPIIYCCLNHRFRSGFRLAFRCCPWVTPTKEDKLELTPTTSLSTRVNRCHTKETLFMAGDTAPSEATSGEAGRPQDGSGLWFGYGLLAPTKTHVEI

[3] = biological target: Rod cGMP-specific 3',5'-cyclic phosphodiesterase subunit alpha (Homo sapiens, UniProt P16499); format: functional
[4] = biological target: Gamma-aminobutyric acid type B receptor subunit 1 (Homo sapiens, UniProt Q9UBS5)
Gamma-aminobutyric acid type B receptor subunit 1, sequence (Q9UBS5 whole entry): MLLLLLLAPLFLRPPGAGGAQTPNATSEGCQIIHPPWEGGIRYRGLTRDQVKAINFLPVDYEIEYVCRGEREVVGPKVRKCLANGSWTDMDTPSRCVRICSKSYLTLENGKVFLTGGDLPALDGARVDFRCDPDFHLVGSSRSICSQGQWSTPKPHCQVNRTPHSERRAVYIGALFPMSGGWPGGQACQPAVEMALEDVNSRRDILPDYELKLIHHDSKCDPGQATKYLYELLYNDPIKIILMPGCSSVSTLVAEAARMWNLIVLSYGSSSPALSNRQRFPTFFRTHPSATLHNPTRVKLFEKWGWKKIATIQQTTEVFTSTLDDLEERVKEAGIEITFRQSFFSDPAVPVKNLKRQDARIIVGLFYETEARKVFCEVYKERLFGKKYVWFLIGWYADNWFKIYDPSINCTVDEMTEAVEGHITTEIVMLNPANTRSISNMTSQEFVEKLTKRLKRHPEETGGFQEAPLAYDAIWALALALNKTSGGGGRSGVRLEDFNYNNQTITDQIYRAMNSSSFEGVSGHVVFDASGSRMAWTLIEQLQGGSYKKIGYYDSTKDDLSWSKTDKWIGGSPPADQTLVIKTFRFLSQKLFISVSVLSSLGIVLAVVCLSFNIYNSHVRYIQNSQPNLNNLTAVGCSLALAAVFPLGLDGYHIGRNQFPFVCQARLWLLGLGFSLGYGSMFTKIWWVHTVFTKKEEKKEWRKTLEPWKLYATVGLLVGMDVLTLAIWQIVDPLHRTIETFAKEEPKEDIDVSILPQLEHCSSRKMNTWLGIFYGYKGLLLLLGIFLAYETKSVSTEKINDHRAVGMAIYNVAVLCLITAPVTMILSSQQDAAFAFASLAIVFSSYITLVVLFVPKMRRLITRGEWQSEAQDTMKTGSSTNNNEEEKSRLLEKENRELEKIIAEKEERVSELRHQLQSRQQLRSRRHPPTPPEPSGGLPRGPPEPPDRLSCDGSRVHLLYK

Androgen receptor = biological target: T2, Androgen receptor (Rattus norvegicus, UniProt P15207); format: functional
T2 sequence (P15207 whole entry): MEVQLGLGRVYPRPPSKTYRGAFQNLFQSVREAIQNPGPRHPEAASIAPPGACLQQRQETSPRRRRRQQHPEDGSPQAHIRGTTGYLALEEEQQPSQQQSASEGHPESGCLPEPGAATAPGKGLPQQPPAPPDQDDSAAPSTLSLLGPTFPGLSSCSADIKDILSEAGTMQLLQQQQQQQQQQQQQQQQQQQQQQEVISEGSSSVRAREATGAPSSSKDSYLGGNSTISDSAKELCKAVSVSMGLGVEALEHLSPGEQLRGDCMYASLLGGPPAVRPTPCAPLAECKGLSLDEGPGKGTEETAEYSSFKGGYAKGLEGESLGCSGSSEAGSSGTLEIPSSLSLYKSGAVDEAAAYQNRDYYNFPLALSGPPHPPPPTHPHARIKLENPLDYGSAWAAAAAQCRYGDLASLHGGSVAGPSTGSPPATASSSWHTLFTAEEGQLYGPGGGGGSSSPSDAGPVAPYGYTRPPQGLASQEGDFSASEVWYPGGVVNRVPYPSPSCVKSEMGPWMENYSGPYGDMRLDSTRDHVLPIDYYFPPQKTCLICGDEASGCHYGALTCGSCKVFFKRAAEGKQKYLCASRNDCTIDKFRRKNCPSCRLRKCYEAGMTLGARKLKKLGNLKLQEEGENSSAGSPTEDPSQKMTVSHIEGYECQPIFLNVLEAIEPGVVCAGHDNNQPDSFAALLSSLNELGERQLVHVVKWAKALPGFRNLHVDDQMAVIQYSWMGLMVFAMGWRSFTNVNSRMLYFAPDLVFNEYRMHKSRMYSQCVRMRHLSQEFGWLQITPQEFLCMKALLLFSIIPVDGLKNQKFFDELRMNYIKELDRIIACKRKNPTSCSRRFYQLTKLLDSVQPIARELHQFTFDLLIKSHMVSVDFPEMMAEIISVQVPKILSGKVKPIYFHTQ

[5] = biological target: Hydroxycarboxylic acid receptor 2 (Homo sapiens, UniProt Q8TDS4)
[6] = biological target: T3, Gamma-aminobutyric acid receptor subunit alpha-1/alpha-2/beta-2/gamma-2 (Homo sapiens, UniProt P14867+P18507+P47869+P47870); format: functional, cell-based
T3 sequence (P14867 whole entry): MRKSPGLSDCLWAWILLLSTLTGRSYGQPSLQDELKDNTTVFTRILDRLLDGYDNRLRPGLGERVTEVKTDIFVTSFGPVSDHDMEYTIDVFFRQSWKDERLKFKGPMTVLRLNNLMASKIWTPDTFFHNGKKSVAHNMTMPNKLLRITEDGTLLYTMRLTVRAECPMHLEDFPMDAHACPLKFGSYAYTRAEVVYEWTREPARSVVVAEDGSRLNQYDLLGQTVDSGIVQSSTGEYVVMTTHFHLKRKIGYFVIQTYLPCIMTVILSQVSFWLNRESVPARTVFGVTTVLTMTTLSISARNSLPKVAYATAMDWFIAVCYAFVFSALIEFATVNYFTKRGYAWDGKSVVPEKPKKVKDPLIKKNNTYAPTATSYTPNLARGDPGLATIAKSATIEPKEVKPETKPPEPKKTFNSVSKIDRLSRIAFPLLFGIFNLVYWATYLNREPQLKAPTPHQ
T3 sequence (P47870 whole entry): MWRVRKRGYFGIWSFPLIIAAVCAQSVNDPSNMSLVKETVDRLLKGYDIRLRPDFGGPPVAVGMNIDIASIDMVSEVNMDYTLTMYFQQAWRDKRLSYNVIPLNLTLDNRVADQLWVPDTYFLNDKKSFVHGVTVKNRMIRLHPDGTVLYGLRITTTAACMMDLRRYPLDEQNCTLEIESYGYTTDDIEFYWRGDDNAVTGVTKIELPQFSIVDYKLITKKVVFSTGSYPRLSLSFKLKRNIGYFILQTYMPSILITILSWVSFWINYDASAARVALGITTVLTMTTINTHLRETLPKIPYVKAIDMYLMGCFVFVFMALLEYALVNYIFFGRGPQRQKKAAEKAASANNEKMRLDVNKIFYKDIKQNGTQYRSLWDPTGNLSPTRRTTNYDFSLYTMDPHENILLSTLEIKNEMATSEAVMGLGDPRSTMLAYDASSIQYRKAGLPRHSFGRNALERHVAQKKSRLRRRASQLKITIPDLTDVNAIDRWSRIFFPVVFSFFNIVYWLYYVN
T3 sequence (P18507 whole entry): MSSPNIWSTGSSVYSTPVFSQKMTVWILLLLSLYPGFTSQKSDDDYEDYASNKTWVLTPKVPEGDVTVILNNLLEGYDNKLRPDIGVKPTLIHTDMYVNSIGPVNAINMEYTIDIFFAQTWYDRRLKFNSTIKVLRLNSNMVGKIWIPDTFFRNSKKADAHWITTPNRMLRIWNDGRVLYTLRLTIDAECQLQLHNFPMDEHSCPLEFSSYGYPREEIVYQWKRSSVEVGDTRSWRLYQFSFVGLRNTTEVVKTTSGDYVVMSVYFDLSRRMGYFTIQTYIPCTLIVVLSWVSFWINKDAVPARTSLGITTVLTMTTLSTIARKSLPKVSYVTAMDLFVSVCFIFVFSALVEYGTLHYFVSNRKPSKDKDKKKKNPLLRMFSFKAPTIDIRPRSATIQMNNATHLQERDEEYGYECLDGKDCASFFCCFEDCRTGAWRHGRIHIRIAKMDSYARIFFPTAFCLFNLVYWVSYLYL
T3 sequence (P47869 whole entry): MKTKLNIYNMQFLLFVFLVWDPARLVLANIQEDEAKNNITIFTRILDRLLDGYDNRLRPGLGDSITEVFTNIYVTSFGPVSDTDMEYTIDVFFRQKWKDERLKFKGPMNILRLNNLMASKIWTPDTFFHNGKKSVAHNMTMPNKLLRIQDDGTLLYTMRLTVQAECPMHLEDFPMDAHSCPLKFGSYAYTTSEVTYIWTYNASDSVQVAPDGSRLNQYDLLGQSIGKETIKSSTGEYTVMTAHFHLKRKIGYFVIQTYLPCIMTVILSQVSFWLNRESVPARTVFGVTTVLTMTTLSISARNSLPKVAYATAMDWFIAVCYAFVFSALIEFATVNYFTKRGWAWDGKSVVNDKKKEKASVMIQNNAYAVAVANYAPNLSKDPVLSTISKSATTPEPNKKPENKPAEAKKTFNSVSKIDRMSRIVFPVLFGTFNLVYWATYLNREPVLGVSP

[7] = biological target: T3, Gamma-aminobutyric acid receptor subunit alpha-1/alpha-2/beta-2/gamma-2; format: functional, cell-based; remark: listed apart in the source
[8] = biological target: T4, Type-2 angiotensin II receptor (Homo sapiens, UniProt P50052); format: functional
T4 sequence (P50052 whole entry): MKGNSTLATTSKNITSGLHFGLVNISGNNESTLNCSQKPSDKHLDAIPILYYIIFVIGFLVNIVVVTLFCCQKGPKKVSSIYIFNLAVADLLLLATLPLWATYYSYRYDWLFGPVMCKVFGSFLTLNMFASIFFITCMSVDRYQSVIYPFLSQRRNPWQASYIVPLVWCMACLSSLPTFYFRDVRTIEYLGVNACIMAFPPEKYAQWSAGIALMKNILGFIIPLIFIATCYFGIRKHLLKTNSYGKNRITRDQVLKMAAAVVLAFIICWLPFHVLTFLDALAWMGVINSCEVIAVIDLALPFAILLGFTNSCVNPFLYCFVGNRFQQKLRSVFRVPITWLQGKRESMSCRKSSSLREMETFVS

[9] = biological target: Sodium channel protein type 5 subunit alpha (Homo sapiens, UniProt Q14524); format: functional, cell-based
Sodium channel protein type 5 subunit alpha, sequence (Q14524 whole entry): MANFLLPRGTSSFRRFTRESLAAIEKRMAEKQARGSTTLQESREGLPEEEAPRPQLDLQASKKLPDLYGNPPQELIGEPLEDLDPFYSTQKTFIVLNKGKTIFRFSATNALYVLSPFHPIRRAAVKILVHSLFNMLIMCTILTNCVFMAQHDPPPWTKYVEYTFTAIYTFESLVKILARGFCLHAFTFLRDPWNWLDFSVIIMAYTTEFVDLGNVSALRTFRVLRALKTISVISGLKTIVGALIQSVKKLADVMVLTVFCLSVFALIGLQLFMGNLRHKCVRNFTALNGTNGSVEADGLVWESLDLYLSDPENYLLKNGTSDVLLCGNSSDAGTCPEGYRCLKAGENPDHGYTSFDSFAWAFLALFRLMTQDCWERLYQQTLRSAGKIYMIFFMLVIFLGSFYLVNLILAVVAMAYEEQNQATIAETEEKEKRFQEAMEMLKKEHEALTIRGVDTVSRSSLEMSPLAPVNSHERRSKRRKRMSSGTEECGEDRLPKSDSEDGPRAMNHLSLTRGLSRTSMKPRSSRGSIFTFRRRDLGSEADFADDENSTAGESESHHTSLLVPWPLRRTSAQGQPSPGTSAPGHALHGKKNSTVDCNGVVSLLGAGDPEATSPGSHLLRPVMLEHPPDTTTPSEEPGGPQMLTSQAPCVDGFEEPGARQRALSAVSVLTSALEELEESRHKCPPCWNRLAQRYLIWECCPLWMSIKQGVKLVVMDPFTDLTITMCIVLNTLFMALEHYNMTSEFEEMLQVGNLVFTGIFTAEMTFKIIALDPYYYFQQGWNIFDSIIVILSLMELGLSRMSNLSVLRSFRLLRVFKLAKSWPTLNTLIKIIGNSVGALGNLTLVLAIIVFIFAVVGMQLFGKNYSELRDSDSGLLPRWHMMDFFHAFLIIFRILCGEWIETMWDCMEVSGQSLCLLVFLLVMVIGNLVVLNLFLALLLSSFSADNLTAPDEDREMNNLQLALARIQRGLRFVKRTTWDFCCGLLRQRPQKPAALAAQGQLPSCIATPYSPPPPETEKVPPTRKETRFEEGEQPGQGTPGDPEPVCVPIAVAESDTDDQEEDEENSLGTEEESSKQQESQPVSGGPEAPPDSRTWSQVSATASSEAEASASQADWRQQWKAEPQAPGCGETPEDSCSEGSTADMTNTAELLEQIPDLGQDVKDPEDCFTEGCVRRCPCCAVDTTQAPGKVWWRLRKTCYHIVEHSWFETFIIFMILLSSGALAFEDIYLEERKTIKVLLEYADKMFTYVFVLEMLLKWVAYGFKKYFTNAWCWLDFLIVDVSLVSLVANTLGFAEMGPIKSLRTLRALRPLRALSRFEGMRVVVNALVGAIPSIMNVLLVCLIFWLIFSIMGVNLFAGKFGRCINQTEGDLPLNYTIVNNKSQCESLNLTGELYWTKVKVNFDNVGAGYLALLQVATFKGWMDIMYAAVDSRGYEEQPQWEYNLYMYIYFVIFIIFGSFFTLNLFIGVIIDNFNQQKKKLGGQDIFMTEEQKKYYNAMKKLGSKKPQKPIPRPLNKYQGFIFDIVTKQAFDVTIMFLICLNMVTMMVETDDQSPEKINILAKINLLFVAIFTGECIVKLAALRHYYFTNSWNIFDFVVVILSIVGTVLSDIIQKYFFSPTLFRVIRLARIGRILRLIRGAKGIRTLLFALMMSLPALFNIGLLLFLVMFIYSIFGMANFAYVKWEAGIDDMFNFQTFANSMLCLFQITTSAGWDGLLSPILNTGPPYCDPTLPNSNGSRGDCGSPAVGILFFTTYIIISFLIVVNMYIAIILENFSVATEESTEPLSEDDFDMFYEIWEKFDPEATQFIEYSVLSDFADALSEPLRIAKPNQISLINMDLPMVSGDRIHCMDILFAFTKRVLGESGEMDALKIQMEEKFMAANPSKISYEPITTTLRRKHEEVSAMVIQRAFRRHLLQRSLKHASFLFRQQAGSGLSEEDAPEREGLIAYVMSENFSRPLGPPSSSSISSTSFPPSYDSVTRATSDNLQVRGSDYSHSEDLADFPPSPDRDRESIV

[10] = biological target: T5, Alpha-2A adrenergic receptor (Homo sapiens, UniProt P08913)
T5 sequence (P08913 whole entry): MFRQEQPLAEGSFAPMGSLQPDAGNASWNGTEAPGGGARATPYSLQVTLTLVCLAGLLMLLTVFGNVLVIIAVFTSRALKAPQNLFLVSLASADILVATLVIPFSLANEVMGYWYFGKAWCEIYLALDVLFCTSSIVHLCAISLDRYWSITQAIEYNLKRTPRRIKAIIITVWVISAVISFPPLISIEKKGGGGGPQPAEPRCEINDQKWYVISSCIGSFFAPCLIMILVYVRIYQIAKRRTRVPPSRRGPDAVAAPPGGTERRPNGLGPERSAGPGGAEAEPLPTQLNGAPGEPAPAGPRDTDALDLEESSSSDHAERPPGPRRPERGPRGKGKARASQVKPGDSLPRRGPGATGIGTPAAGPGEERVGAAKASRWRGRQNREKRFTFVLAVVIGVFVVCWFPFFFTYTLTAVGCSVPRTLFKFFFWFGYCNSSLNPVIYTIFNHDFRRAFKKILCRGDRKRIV
Further: assay procedure not described here.

For `O=C(Nc1nc(-c2cc(Cl)cs2)c(N2CCN(C3CCCCC3)CC2)s1)c1cnc(N2CCC(C(=O)O)CC2)c(Cl)c1` [AVATROMBOPAG], the AC50 [1] was > 10 µM, the AC50 [2] was > 10 µM and the AC50 (D(1B) dopamine receptor) was > 10 µM. For the same molecule, the AC50 (Substance-K receptor) was > 10 µM, the AC50 [3] was > 10 µM and the AC50 [4] was > 10 µM.
With `CN(C)C(=O)Oc1cc(OC(=O)N(C)C)cc(C(O)CNC(C)(C)C)c1` (stereo unspecified) [BAMBUTEROL] the AC50 (Androgen receptor) was > 30 µM.
`C[C@H]1C[C@H]2[C@@H]3CCC4=CC(=O)C=C[C@]4(C)[C@@]3(Cl)[C@@H](O)C[C@]2(C)[C@@]1(O)C(=O)CO` [BECLOMETHASONE] was tested, and the AC50 [5] was > 10 µM.
For `CO[C@@]1(NC(=O)CSCC#N)C(=O)N2C(C(=O)O)=C(CSc3nnnn3C)CS[C@@H]21` [CEFMETAZOLE], the AC50 [6] was > 30 µM.
For `CO/N=C(\C(=O)N[C@@H]1C(=O)N2C(C(=O)[O-])=C(C[n+]3cccc4c3CCC4)CS[C@H]12)c1csc(N)n1` [CEFPIROME], the AC50 [7] was > 30 µM and the AC50 [6] was > 30 µM.
For `NS(=O)(=O)c1cc(C2(O)NC(=O)c3ccccc32)ccc1Cl` (stereo unspecified) [CHLORTHALIDONE], the AC50 [8] was > 100 µM.
With `Oc1c(I)cc(Cl)c2cccnc12` [CLIOQUINOL] the AC50 [7] was > 30 µM and the AC50 [6] was > 30 µM.
For `COc1ccc2c(c1)[C@]13CCCC[C@@H]1[C@H](C2)N(C)CC3` [DEXTROMETHORPHAN], the AC50 [9] was > 30 µM.
Molecule `O=C(CCCN1CC=C(n2c(=O)[nH]c3ccccc32)CC1)c1ccc(F)cc1` [DROPERIDOL] has an AC50 [9] of 49 µM.
With `CCn1cc(C(=O)O)c(=O)c2cc(F)c(N3CCNCC3)nc21` [ENOXACIN] the AC50 [1] was > 10 µM, the AC50 [2] was > 10 µM and the AC50 (D(1B) dopamine receptor) was > 10 µM. The AC50 (Substance-K receptor) was > 10 µM, the AC50 [3] was > 10 µM and the AC50 [4] was > 10 µM.
With `O=C(O)CSCC(=O)NC1CCSC1=O` (stereo unspecified) [ERDOSTEINE] the AC50 (Androgen receptor) was > 30 µM.
Work on `N=C(N)c1ccc2cc(OC(=O)c3ccc(N=C(N)N)cc3)ccc2c1` [NAFAMOSTAT] yielded an AC50 (Androgen receptor) of 12 µM.
Work on `c1ccc2c(CC3=NCCN3)cccc2c1` [NAPHAZOLINE] yielded an AC50 [10] of 0.0087 µM.
In the case of `NS(=O)(=O)c1cc(C(=O)O)cc(N2CCCC2)c1Oc1ccccc1` [PIRETANIDE], the AC50 [8] is reported as > 100 µM.
In the case of `COCCCOc1ccnc(C[S+]([O-])c2nc3ccccc3[nH]2)c1C` (stereo unspecified) [RABEPRAZOLE], the AC50 [5] is reported as > 10 µM.
In the case of `CC(C)=CCOc1ccc(/C=C/C(=O)c2ccc(OCC=C(C)C)cc2OCC(=O)O)cc1` [SOFALCONE], the AC50 (Androgen receptor) is reported as > 30 µM.
In the case of `O=C(CCCN1CCC2(CC1)C(=O)NCN2c1ccccc1)c1ccc(F)cc1` [SPIPERONE], the AC50 [10] is reported as 17 µM, the AC50 [7] is reported as > 30 µM and the AC50 [6] is reported as > 30 µM.
